Data published in US9670194B2 (Calitor Sciences, LLC, priority 2013, dated 2017).

Tests used:
[1] = Pharmacokinetics after intravenous and oral administration in rats; type: in vivo, rat; settings: for clearance (CL) / AUC(0-t) / half-life / Vd: iv dosing, dose 1 mg/kg; for bioavailability / AUC(0-t) / half-life / Vd: rat, plasma; for bioavailability: iv dose 1 mg/kg, oral dose generally 5 or 10 mg/kg; for Vd: read-out: Vss
[2] = Compound stability in rat liver microsomes; type: in vitro ADME; settings: pH 7.4; for half-life at 5 μM: rat liver microsomes 0.5 mg protein/mL, compound 5 μM, NADPH 1.0 mM, 37° C.; for CLint scaled at 5 μM: rat liver microsomes, in vivo CLint extrapolated
[3] = Compound stability in human liver microsomes; type: in vitro ADME; settings: for half-life at 5 μM: human liver microsomes 0.5 mg protein/mL, compound 5 μM, NADPH 1.0 mM, 37° C.; for CLint scaled at 5 μM: human liver microsomes, in vivo CLint extrapolated

| Structure (SMILES) | clearance (CL) [1] | bioavailability [1] | AUC(0-t) [1] | half-life [1] | Vd [1] | half-life at 5 μM [2] | CLint scaled at 5 μM [2] | half-life at 5 μM [3] | CLint scaled at 5 μM [3] |
| --- | --- | --- | --- | --- | --- | --- | --- | --- | --- |
| CC[C@H](Nc1ncnc(N)c1-c1noc(C)n1)c1nc2cccc(Cl)c2c(=O)n1-c1ccccc1 [Ex. 13, (S)-2-(1-((6-amino-5-(5-methyl-1,2,4-oxadiazol-3-yl)pyrimidin-4-yl)amino)-propyl)-5-chloro-3-phenylquinazolin-4(3H)-one] | 72.5 mL/min/kg | 11.4% | 232 ng·h/mL | 68.4 min | 6.92 L/kg | 6.55 min | 379 mL/min/kg | 44.7 min | 38.9 mL/min/kg |
| CC[C@H](Nc1ncnc(N)c1-c1ncn(C)n1)c1nc2cccc(C)c2c(=O)n1C1CC1 [Ex. 18, (S)-2-(1-((6-amino-5-(1-methyl-1H-1,2,4-triazol-3-yl)pyrimidin-4-yl)amino)propyl)-3-cyclopropyl-5-methylquinazolin-4(3H)-one] | 54.2 mL/min/kg | 60.6% | 307 ng·h/mL | 53.4 min | 2.94 L/kg | 9.24 min | 269 mL/min/kg | 16.5 min | 105 mL/min/kg |
| CC[C@H](Nc1ncnc(N)c1-c1ncc(C)o1)c1nc2cccc(C)c2c(=O)n1-c1ccccc1C [Ex. 28, (S)-2-(1-((6-amino-5-(5-methyloxazol-2-yl)pyrimidin-4-yl)amino)propyl)-5-methyl-3-(o-tolyl)quinazolin-4(3H)-one] | 61.2 mL/min/kg | 7.67% | 265 ng·h/mL | 265 min | 8.92 L/kg | 5.12 min | 485 mL/min/kg | 8.69 min | 286 mL/min/kg |
| C[C@H](Nc1ncnc(N)c1-c1nnn(C)n1)c1nc2cccc(Cl)c2c(=O)n1C1CC1 [Ex. 42, (S)-2-(1-((6-amino-5-(2-methyl-2H-tetrazol-5-yl)pyrimidin-4-yl)amino)ethyl)-5-chloro-3-cyclopropylquinazolin-4(3H)-one] | 82 mL/min/kg | 33% | 203 ng·h/mL | 54.6 min | 5.15 L/kg | 25.3 min | 98.2 mL/min/kg | 42.4 min | 41 mL/min/kg |
| CC[C@H](Nc1ncnc(N)c1C1=N[C@@H](C)CO1)c1nc2cccc(Cl)c2c(=O)n1C1CC1 [Ex. 5, 2-((S)-1-((6-amino-5-((S)-4-methyl-4,5-dihydrooxazol-2-yl)pyrimidin-4-yl)amino)propyl)-5-chloro-3-cyclopropylquinazolin-4(3H)-one] | 59.5 mL/min/kg | 30.4% | 276 ng·h/mL | 91.2 min | 11.9 L/kg | 5.98 min | 416 mL/min/kg | 5.52 min | 315 mL/min/kg |
| CC[C@H](Nc1ncnc(N)c1-c1noc(C)n1)c1nc2cccc(C)c2c(=O)n1-c1ccccc1C [Ex. 15, (S)-2-(1-((6-amino-5-(5-methyl-1,2,4-oxadiazol-3-yl)pyrimidin-4-yl)amino)-propyl)-5-methyl-3-(o-tolyl)quinazolin-4(3H)-one] | 74.2 mL/min/kg | 36.4% | 223 ng·h/mL | 69.6 min | 7.41 L/kg | 4.84 min | 513 mL/min/kg | 12.6 min | 138 mL/min/kg |
| CC[C@H](Nc1ncnc(N)c1-c1nnn(C)n1)c1nc2cccc(Cl)c2c(=O)n1-c1cccc(F)c1 [Ex. 36, (S)-2-(1-((6-amino-5-(2-methyl-2H-tetrazol-5-yl)pyrimidin-4-yl)amino)propyl)-5-chloro-3-(3-fluorophenyl)quinazolin-4(3H)-one] | – | – | – | – | – | 14.6 min | 170 mL/min/kg | 14.3 min | 122 mL/min/kg |

Further lines, results first:

| clearance (CL) [1] | bioavailability [1] | AUC(0-t) [1] | half-life [1] | Vd [1] | half-life at 5 μM [2] | CLint scaled at 5 μM [2] | half-life at 5 μM [3] | CLint scaled at 5 μM [3] | Structure (SMILES) |
| --- | --- | --- | --- | --- | --- | --- | --- | --- | --- |
| 6100 mL/min/kg | 23.6% | 271 ng·h/mL | 56.4 min | 3.16 L/kg | 7.63 min | 325 mL/min/kg | 27.1 min | 91.6 mL/min/kg | CC[C@H](Nc1ncnc(N)c1-c1ccon1)c1nc2cccc(C)c2c(=O)n1C1CC1 [Ex. 47, (S)-2-(1-((6-amino-5-(isoxazol-3-yl)pyrimidin-4-yl)amino)propyl)-3-cyclopropyl-5-methylquinazolin-4(3H)-one] |
| 36.8 mL/min/kg | 90% | 452 ng·h/mL | 91.2 min | 3.41 L/kg | 7.15 min | 347 mL/min/kg | 7.12 min | 244 mL/min/kg | CC[C@H](Nc1ncnc(N)c1-c1nnn(C)n1)c1nc2cccc(F)c2c(=O)n1-c1ccccc1 [Ex. 43, (S)-2-(1-((6-amino-5-(2-methyl-2H-tetrazol-5-yl)pyrimidin-4-yl)amino)-propyl)-5-fluoro-3-phenylquinazolin-4(3H)-one] |
| 86.7 mL/min/kg | 28.3% | 192 ng·h/mL | 68.4 min | 3.96 L/kg | 13.3 min | 186 mL/min/kg | 11.4 min | 152 mL/min/kg | CC[C@H](Nc1ncnc(N)c1-c1ncn(C)n1)c1nc2cccc(Cl)c2c(=O)n1-c1ccc(F)cc1 [Ex. 50, (S)-2-(1-((6-amino-5-(1-methyl-1H-1,2,4-triazol-3-yl)pyrimidin-4-yl)amino)propyl)-5-chloro-3-(4-fluorophenyl)quinazolin-4(3H)-one] |
| 67.3 mL/min/kg | 32.7% | 254 ng·h/mL | 40.8 min | 2.42 L/kg | 27 min | 91.8 mL/min/kg | 136 min | 12.8 mL/min/kg | CC[C@H](Nc1ncnc(N)c1-c1ccon1)c1nc2cccc(F)c2c(=O)n1C1CC1 [Ex. 48, (S)-2-(1-((6-amino-5-(isoxazol-3-yl)pyrimidin-4-yl)amino)propyl)-3-cyclopropyl-5-fluoroquinazolin-4(3H)-one] |
| 85.7 mL/min/kg | 21.3% | 194 ng·h/mL | 73.2 min | 6.07 L/kg | 6.71 min | 370 mL/min/kg | 7.72 min | 322 mL/min/kg | CC[C@H](Nc1ncnc(N)c1-c1nc(C)co1)c1nc2cccc(Cl)c2c(=O)n1C1CC1 [Ex. 52, (S)-2-(1-((6-amino-5-(4-methyloxazol-2-yl)pyrimidin-4-yl)amino)propyl)-5-chloro-3-cyclopropylquinazolin-4(3H)-one] |
| – | – | – | – | – | 99.1 min | 25.1 mL/min/kg | 42.8 min | 40.6 mL/min/kg | CC[C@H](Nc1ncnc(N)c1-c1nnn(C)n1)c1nc2cccc(Cl)c2c(=O)n1C1CC1 [Ex. 54, (S)-2-(1-((6-amino-5-(2-methyl-2H-tetrazol-5-yl)pyrimidin-4-yl)amino)-propyl)-5-chloro-3-cyclopropylquinazolin-4(3H)-one] |
